Test results from patent publication US9962372B2, “Pharmaceutical composition for the treatment of mycosis” (priority 2015, dated 2018).
Like-named read-outs stand apart in the source and are kept apart here.

Experiments:
[1] = test system: C. albicans ATCC® 10231; assay: Broth dilution method: MIC and synergy; type: cell-based, Candida albicans; details: for MIC: RPMI-1640, 35° C., 48 h; for MIC in combination with benzydamine: in combination with benzydamine 0.125 mg/ml
Description: (§1) Candida strains stored at −80° C. were thawed and streaked on SDA plate and then a second subculture was performed. Then, Candida strains suspensions were prepared as follows.
(§2) 10 ml of saline were placed in a 50 ml falcon tube with 5 g of glass beads. Loopful of the cells of the colonies of the second subculture were transferred into the saline and suspended by rubbing the loop against the wet wall of the tube to dislodge the cells. The tube was then shacked for 3 minutes using a mechanical shaker.
(§3) The number of cells in the suspension was adjusted from 1.5×10^6 to 5.0×10^6 colony forming units (CFU)/ml using saline according to Mc Farland standard No. 0.5 standard and reading the optical density at 550 nm.
(§4) For counting, serially 1:10 dilutions were prepared using saline, to obtain 10^−4 and 10^−5 dilutions of the suspension. A sample of 100 μl of each dilution was spread plate and incubated at 37° C. for 48 h.
(§5) The methodology used for the broth dilution method was similar to that disclosed in “EUCAST Definitive Document EDef 7.1: method for the determination of broth dilution MICs of antifungal agents for fermentative yeasts” (Clin Microbiol Infect 2008; 14: 398-408).
(§6) Then, serial 1:2 dilutions were prepared in DMSO, to concentrations from 10.0 mg/ml to 0.078 mg/ml. These solutions were further diluted 1:100 in RPMI-1640 (GiBCO® by Life Technologies) containing 2% glucose, 3-(N-morpholino) propanesulfonic acid (MOPS, by SIGMA) without NaHCO3, to final concentration from 100 μg/ml to 0.78 μg/ml.
as §6, with “from 1.250” for “from 10.0”, “to 0.0196” for “to 0.078”, “from 12.50” for “from 100”, “to 0.196” for “to 0.78”
as §6, with “from 5.0” for “from 10.0”, “to 0.3125” for “to 0.078”, “from 50” for “from 100”, “to 3.125” for “to 0.78”
(§7) Benzydamine was dissolved in water to a concentration of 25 mg/ml. Then, serial 1:2 dilutions were prepared in water, to concentrations from 25 mg/ml to 3.125 mg/ml. 1 ml of each solution was added to 24 ml (1:25 dilution) of RPMI-1640 (GiBCO® by Life Technologies) containing 2% glucose, 3-(N-morpholino) propanesulfonic acid (MOPS, by SIGMA) without NaHCO3, to final concentration from 1 mg/ml to 0.125 mg/ml.
As positive control Amphotericin B from a stock solution of 1600 μg/ml was diluted in DMSO to solutions having concentrations from 200 μg/ml to 50 μg/ml. These solutions were diluted 1:100 in RPMI-1640 (GiBCO®, by Life Technology) containing 2% glucose, 3-(N-morpholino) propanesulfonic acid (MOPS, by SIGMA) without NaHCO3, to concentrations from 2 μg/ml to 0.5 μg/ml.
(§8) (B) For synergy studies, further solutions of econazole, miconazole, clotrimazole and fluconazole nitrate having concentrations from 100 μg/ml to 0.049 μg/ml were prepared in RPMI-1640 as disclosed in paragraph 1.3.1(A).
(§9) Also, further solutions of benzydamine having concentrations from 1 mg/ml to 0.25 mg/ml were prepared in RPMI-1640 as disclosed in paragraph 1.3.1(A). Moreover, the solution of benzydamine with a concentration of 1 mg/ml was further diluted 1:1.43 with RPMI-1640 to concentration of 0.7 mg/ml.
(§10) Microdilution plates containing wells with a nominal capacity of about 300 μL/well were used.
(§11) The Candida strains suspensions prepared as described in paragraph 1.1 were grown on Sabouraud's agar medium SDA (Oxoid). Colonies were diluted in phosphate-buffered saline (PBS) and suspensions were adjusted to approximately 1-5×10^5 CFU/ml using Mc Farland 0.5 standard and reading the optical density at 550 nm.

[2] = test system: C. lusitaniae ATCC® 34449; assay: Agar dilution method: MIC and synergy (FIC); type: cell-based, Candida lusitaniae; details: for MIC: Clavispora lusitaniae, ATCC34449, active ingredient alone, agar dilution, Sabouraud agar, 35° C., 48 h, complete inhibition of growth
Description: Candida strains stored at -80° C. were thawed and streaked on SDA plate and then a second subculture was performed. Then, Candida strains suspensions were prepared as follows. 10 ml of saline were placed in a 50 ml falcon tube with 5 g of glass beads. Loopful of the cells of the colonies of the second subculture were transferred into the saline and suspended by rubbing the loop against the wet wall of the tube to dislodge the cells. The tube was then shacked for 3 minutes using a mechanical shaker. The number of cells in the suspension was adjusted from 1.5×10^6 to 5.0×10^6 colony forming units (CFU)/ml using saline according to Mc Farland standard No. 0.5 standard and reading the optical density at 550 nm. For counting, serially 1:10 dilutions were prepared using saline, to obtain 10^-4 and 10^-5 dilutions of the suspension. A sample of 100 μl of each dilution was spread plate and incubated at 37° C. for 48 h. […] The methodology was similar to that disclosed by R. Moody et al., “In Vitro Activities of Miconazole, Miconazole Nitrate, and Ketoconazole Alone and Combined with Rifampin against Candida spp. and Torulopsis glabrata Recovered from Cancer Patients.”, Antimicrobial Agents and Chemotherapy: 1980, 17, 871-875. Standard Petri dishes (92 mm diameter×16 mm height) were used. After the agar was poured, plates were allowed to cool and then immediately used. […] All the Petri dishes were incubated at 35° C. for 48 h. (B) For synergy studies, the surface of each Petri dish prepared as described in paragraph 1.2.1(B) was inoculated with four spots (20 μl inoculum volume) of the Candida strains suspensions prepared as described in paragraph 1.1, and incubated at 35° C. for 48 hours. The lowest concentration of drug that produced a complete inhibition of growth for a certain Candida strain was regarded as the minimal inhibitory concentration (MIC) for said strain. […] The synergistic effect of the combinations comprising benzydamine and econazole nitrate was evaluated by calculating the fractional inhibitory concentration (FIC), in accordance with […]. et al. in Antimicrobial Agents and Chemotherapy, February 2010, p. 602-609. […] FIC[combination b+e]=[…]] is the fractional inhibitory concentration of benzydamine with respect to a specific Candida strain, calculated as the ratio between the MIC of benzydamine in the presence of a sub-MIC amount of econazole (MIC(b+e)) and the MIC of benzydamine alone (MIC(b)), as follows: FIC[e] is the fractional inhibitory concentration of econazole with respect to a specific Candida strain, calculated as the ratio between the MIC of econazole in the presence of a sub-MIC amount of benzydamine (MIC(e+b)) and the MIC of econazole alone (MIC(e)), as follows: […]

[3] = test system: C. albicans ATCC® MYA-427; assay: Broth dilution method: MIC and synergy; type: cell-based, Candida albicans; details: for MIC: Candida albicans, active ingredient alone, RPMI-1640, 35° C., 48 h; for MIC in combination with benzydamine: in combination with benzydamine 0.125 mg/ml
Description: as §1, §2, §3, §4, §5, §6, §7, §8, §9, §10, §11
(§12) (A) For the calculation of the MIC, microdilution plates containing in each well 100 μl of each solution of the active ingredients obtained as described in paragraph 1.3.1(A) were prepared. The wells were then inoculated with 100 μl of Candida strains suspensions obtained as disclosed above containing 1-5×10^5 CFU/ml.
(§13) In each well, the final inoculum density and the final concentration of the active ingredients was half of that used (i.e. the final inoculum density was 0.5-2.5×10^5 CFU/ml, the concentration of econazole and miconazole was from 50 μg/ml to 0.39 μg/ml, the concentration of clotrimazole was from 6.25 μg/ml to 0.098 μg/ml, the concentration of fluconazole was from 50 μg/ml to 3.125 μg/ml and the concentration of benzydamine was from 0.5 mg/ml to 0.0625 mg/ml).
(§14) The microdilution plates were incubated for 48 hours at 35° C.
(§15) (B) For synergy studies, microdilution plates containing in each well 50 μl of each solution of econazole and miconazole and 50 μl of each solution of benzydamine, obtained as disclosed in paragraph 1.3.1(B), were prepared. Then, the wells were inoculated with 100 μl of the 1-5×10^5 CFU/ml Candida suspensions. […]

[4] = test system: C. albicans ATCC® MYA-574 fluconazole resistant; assay: Broth dilution method: MIC and synergy; type: cell-based, Candida albicans; details: for MIC: Candida albicans, active ingredient alone, RPMI-1640, 35° C., 48 h
Description: as §1, §2, §3, §4, §5, §6, §7, §8, §9, §10, §11, §12, §13, §14, §15

[5] = test system: C. tropicalis ATCC® 750; assay: Broth dilution method: MIC and synergy (FIC); type: cell-based, Candida tropicalis; details: for MIC: RPMI-1640, 35° C., 48 h; for MIC in combination with benzydamine: in combination with benzydamine 0.175 mg/ml
Description: as §1, §2, §3, §4, §5, §6
as §6, with “from 1.250” for “from 10.0”, “to 0.0196” for “to 0.078”, “from 12.50” for “from 100”, “to 0.196” for “to 0.78”
as §6, with “from 5.0” for “from 10.0”, “to 0.3125” for “to 0.078”, “from 50” for “from 100”, “to 3.125” for “to 0.78”
as §7, §8, §9, §10, §11, §12

[6] = Candida tropicalis, ATCC750, active ingredient alone, read-out: MIC
[7] = Candida albicans, ATCC10231, active ingredient alone, read-out: MIC

Row | Compound | MIC ([1]; active ingredient alone) [µg/mL] | MIC [2] [µg/mL] | FIC[b] (fractional inhibitory concentration of benzydamine) ([2]; MIC of benzydamine in presence of sub-MIC econazole / MIC of benzydamine alone) | MIC [3] [µg/mL] | MIC [4] [µg/mL] | MIC of benzydamine in combination with econazole ([4]; in combination with econazole) [µg/mL] | MIC of benzydamine in combination with miconazole ([4]; in combination with miconazole) [µg/mL] | MIC [5, 6] [µg/mL] | MIC [1, 7] [µg/mL] | FIC[e] (fractional inhibitory concentration of econazole) ([2]; MIC of econazole in presence of sub-MIC benzydamine / MIC of econazole alone) | MIC in combination with benzydamine [3] [µg/mL] | MIC in combination with benzydamine [4] [µg/mL] | MIC in combination with benzydamine [5] [µg/mL] | MIC in combination with benzydamine [1] [µg/mL] | MIC ([5]; active ingredient alone) [µg/mL]
1 | C[C@@H]1[C@H](O)[C@@H](C)/C=C/C=C/C=C/C=C/C=C/C=C/C=C/[C@H](O[C@@H]2O[C@H](C)[C@@H](O)[C@H](N)[C@@H]2O)C[C@@H]2O[C@](O)(C[C@@H](O)C[C@@H](O)[C@H](O)CC[C@@H](O)C[C@@H](O)CC(=O)O[C@H]1C)C[C@H](O)[C@H]2C(=O)O [Amphotericin B] | 0.5 | – | – | – | – | – | – | – | – | – | – | – | – | – | –
2 | CN(C)CCCOc1nn(Cc2ccccc2)c2ccccc12 [Benzydamine] | – | 500 | 0.25 | 500 | 500 | 125 | 62.5 | 500 | 500 | – | – | – | – | – | –
3 | Clc1ccc(COC(Cn2ccnc2)c2ccc(Cl)cc2Cl)cc1 (stereo not drawn) [Econazole nitrate] | – | 1.56 | – | 25 | 25 | – | – | 12.5 | 25 | 0.0628 | 1.56 | 12.5 | 1.56 | 3.125 | –
4 | Clc1ccc(COC(Cn2ccnc2)c2ccc(Cl)cc2Cl)c(Cl)c1 (stereo not drawn) [Miconazole nitrate] | – | – | – | 25 | 50 | – | – | 6.25 | 6.25 | – | 0.78 | 12.5 | 0.78 | 1.56 | –
5 | Clotrimazole nitrate | 0.025 | – | – | – | – | – | – | – | – | – | – | – | 0.098 | – | 6.25
6 | Fluconazole nitrate | 3.125 | – | – | – | – | – | – | – | – | – | – | – | 6.25 | – | 50
